Assay results published in PubChem BioAssay AID330 (DTP/NCI, 2004).
Several values for one entry are separate records, joined by “and”; a condition that tells them apart may be missing. Equal values may be shown once. Inconclusive results and toxic doses are left out.

System: P388 leukemia ip, CD2F1 mice, survival T/C
Experiment: NCI In Vivo Anticancer Drug Screen. Data for tumor model P388 Leukemia (intraperitoneal) in CD2F1 (CDF1) mice
Conditions: endpoint: median survival time, higher = longer survival
How it was run: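 Mice carrying the transplanted tumor received test compound or vehicle. Survival was recorded in each group, and the value is the treated-group measurement divided by that of the vehicle-treated control group.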

[1] = dose: 50.0 mg/kg/injection, schedule: Q01DX009 (ip), vehicle: Klucel (hydroxypropylcellulose) (HPC)
[2] = dose: 100.0 mg/kg/injection, schedule: Q01DX009 (ip), vehicle: Klucel (hydroxypropylcellulose) (HPC)
[3] = dose: 200.0 mg/kg/injection, schedule: Q01DX009 (ip), vehicle: Klucel (hydroxypropylcellulose) (HPC)
[4] = dose: 12.5 mg/kg/injection, schedule: Q01DX009 (ip), vehicle: saline with Tween-80
[5] = dose: 25.0 mg/kg/injection, schedule: Q01DX009 (ip), vehicle: saline with Tween-80
[6] = dose: 50.0 mg/kg/injection, schedule: Q01DX009 (ip), vehicle: saline with Tween-80
[7] = dose: 100.0 mg/kg/injection, schedule: Q01DX009 (ip), vehicle: saline with Tween-80
[8] = dose: 50.0 mg/kg/injection, schedule: Q01DX009 (ip), vehicle: saline
[9] = dose: 100.0 mg/kg/injection, schedule: Q01DX009 (ip), vehicle: saline
[10] = dose: 200.0 mg/kg/injection, schedule: Q01DX009 (ip), vehicle: saline
[11] = dose: 200.0 mg/kg/injection, schedule: Q01DX009 (ip), vehicle: saline with Tween-80
[12] = dose: 50.0 mg/kg/injection, schedule: Q01DX005 (ip), vehicle: saline with Tween-80
[13] = dose: 100.0 mg/kg/injection, schedule: Q01DX005 (ip), vehicle: saline with Tween-80
[14] = dose: 200.0 mg/kg/injection, schedule: Q01DX005 (ip), vehicle: saline with Tween-80

CSc1cccc(NC(=O)Oc2cccnc2)c1
T/C [1]: 103 % of control | T/C [2]: 100 % of control | T/C [3]: 100 % of control

Cc1c(-c2ccccc2)ccnc1/C=N/NC(=S)NCCc1ccccn1
T/C (dose: 6.25 mg/kg/injection, schedule: Q01DX009 (ip), vehicle: saline with Tween-80): 113 % of control | T/C [4]: 107 % of control and 111 % of control | T/C [5]: 115 % of control and 117 % of control | T/C [6]: 120 % of control and 122 % of control | T/C [7]: 86 % of control

CCCCCCCCCCCCCCCC[N+]1([O-])CCCC1
T/C [8]: 102 % of control

O=C(O)c1cc([N+](=O)[O-])cc([N+](=O)[O-])c1Sc1ncccn1
T/C [8]: 96 % of control | T/C [9]: 100 % of control | T/C [10]: 101 % of control

NN(Cc1ccccc1[N+](=O)[O-])c1ccccc1
T/C [6]: 100 % of control | T/C [7]: 86 % of control | T/C [11]: 101 % of control

COc1ccc(NC(=O)/C=C\C(=O)O)cc1OC
T/C [12]: 96 % of control | T/C [13]: 96 % of control | T/C [14]: 96 % of control

COc1ccc(NC(=S)Nc2ccccn2)cc1
T/C (dose: 100.0 mg/kg/injection, schedule: Q04DX003 (ip), vehicle: saline with Tween-80): 108 % of control | T/C (dose: 200.0 mg/kg/injection, schedule: Q04DX003 (ip), vehicle: saline with Tween-80): 95 % of control | T/C (dose: 400.0 mg/kg/injection, schedule: Q04DX003 (ip), vehicle: saline with Tween-80): 112 % of control

COc1cccc2c1C(=O)c1c(O)c3c(c(O)c1C2=O)C[C@@](O)(C(C)O)C[C@@H]3OC1CC(NCc2ccccc2)C(O)C(C)O1 (some centres undefined)
T/C (dose: 0.78 mg/kg/injection, schedule: Q01DX009 (ip), vehicle: water): 158 % of control | T/C (dose: 1.56 mg/kg/injection, schedule: Q01DX009 (ip), vehicle: water): 163 % of control | T/C (dose: 3.13 mg/kg/injection, schedule: Q01DX009 (ip), vehicle: water): 181 % of control and 194 % of control | T/C (dose: 6.25 mg/kg/injection, schedule: Q01DX009 (ip), vehicle: water): 215 % of control and 226 % of control

CCO
T/C (dose: 250.0 mg/kg/injection, schedule: Q01DX009 (ip), vehicle: saline with Tween-80): 95 % of control | T/C (dose: 0.5 % in 0.5 ml injection vol, schedule: Q01DX009 (ip), vehicle: water): 94 % of control | T/C (dose: 500.0 mg/kg/injection, schedule: Q01DX009 (ip), vehicle: saline with Tween-80): 90 % of control | T/C (dose: 1.0 % in 0.5 ml injection vol, schedule: Q01DX009 (ip), vehicle: water): 92 % of control | T/C (dose: 1000.0 mg/kg/injection, schedule: Q01DX009 (ip), vehicle: saline with Tween-80): 95 % of control | T/C (dose: 2.0 % in 0.5 ml injection vol, schedule: Q01DX009 (ip), vehicle: water): 102 % of control and 94 % of control | T/C (dose: 2000.0 mg/kg/injection, schedule: Q01DX009 (ip), vehicle: saline with Tween-80): 95 % of control | T/C (dose: 4.0 % in 0.5 ml injection vol, schedule: Q01DX009 (ip), vehicle: water): 101 % of control and 106 % of control | T/C (dose: 8.0 % in 0.5 ml injection vol, schedule: Q01DX009 (ip), vehicle: water): 100 % of control and 103 % of control | T/C (dose: 16.0 % in 0.5 ml injection vol, schedule: Q01DX009 (ip), vehicle: water): 100 % of control

O=c1c2ccccc2nnn1O
T/C (dose: 100.0 mg/kg/injection, schedule: Q04DX003 (ip), vehicle: Klucel (hydroxypropylcellulose) (HPC)): 108 % of control | T/C (dose: 200.0 mg/kg/injection, schedule: Q04DX003 (ip), vehicle: Klucel (hydroxypropylcellulose) (HPC)): 108 % of control

O=S(=O)(O)c1ccc2nccn2c1
T/C (dose: 100.0 mg/kg/injection, schedule: Q01DX001 (ip), vehicle: suspension in saline): 100 % of control | T/C (dose: 200.0 mg/kg/injection, schedule: Q01DX001 (ip), vehicle: suspension in saline): 89 % of control | T/C (dose: 400.0 mg/kg/injection, schedule: Q01DX001 (ip), vehicle: suspension in saline): 100 % of control

CCOC(=O)c1ccc(NN=NCCO)cc1
T/C (dose: 12.5 mg/kg/injection, schedule: Q01DX009 (ip), vehicle: distilled water + Tween-80): 97 % of control | T/C (dose: 25.0 mg/kg/injection, schedule: Q01DX009 (ip), vehicle: distilled water + Tween-80): 100 % of control | T/C (dose: 50.0 mg/kg/injection, schedule: Q01DX009 (ip), vehicle: distilled water + Tween-80): 100 % of control | T/C (dose: 100.0 mg/kg/injection, schedule: Q01DX009 (ip), vehicle: distilled water + Tween-80): 95 % of control | T/C (dose: 200.0 mg/kg/injection, schedule: Q01DX009 (ip), vehicle: distilled water + Tween-80): 118 % of control

COc1c(O)ccc([N+](=O)[O-])c1OC
T/C (dose: 12.5 mg/kg/injection, schedule: Q01DX009 (ip), vehicle: other): 96 % of control | T/C (dose: 25.0 mg/kg/injection, schedule: Q01DX009 (ip), vehicle: other): 98 % of control | T/C (dose: 50.0 mg/kg/injection, schedule: Q01DX009 (ip), vehicle: other): 105 % of control | T/C (dose: 100.0 mg/kg/injection, schedule: Q01DX009 (ip), vehicle: other): 102 % of control | T/C (dose: 200.0 mg/kg/injection, schedule: Q01DX009 (ip), vehicle: other): 97 % of control

NS(=O)(=O)c1ccc(N2CCS(=O)(=O)CC2)cc1
T/C [8]: 101 % of control | T/C [9]: 90 % of control | T/C [10]: 97 % of control

O=NNc1c2ccccc2nc2ccccc12
T/C (dose: 0.09 mg/kg/injection, schedule: Q01DX009 (ip), vehicle: water): 99 % of control | T/C (dose: 0.18 mg/kg/injection, schedule: Q01DX009 (ip), vehicle: water): 95 % of control | T/C (dose: 0.37 mg/kg/injection, schedule: Q01DX009 (ip), vehicle: water): 101 % of control | T/C (dose: 0.75 mg/kg/injection, schedule: Q01DX009 (ip), vehicle: water): 104 % of control | T/C (dose: 1.5 mg/kg/injection, schedule: Q01DX009 (ip), vehicle: water): 86 % of control

C1CCC2(CC1)SSC1(CCCCC1)S2
T/C (dose: 100.0 mg/kg/injection, schedule: Q04DX003 (ip), vehicle: other): 109 % of control | T/C (dose: 200.0 mg/kg/injection, schedule: Q04DX003 (ip), vehicle: other): 109 % of control | T/C (dose: 400.0 mg/kg/injection, schedule: Q04DX003 (ip), vehicle: other): 113 % of control

FC(F)(F)S.[Ag]
T/C [4]: 107 % of control | T/C [5]: 116 % of control

Cc1cc(N2CCOCC2)nc(N2CCOCC2)c1C#N
T/C (dose: 6.25 mg/kg/injection, schedule: Q01DX005 (ip), vehicle: saline with Tween-80): 100 % of control | T/C (dose: 12.5 mg/kg/injection, schedule: Q01DX005 (ip), vehicle: saline with Tween-80): 108 % of control | T/C (dose: 25.0 mg/kg/injection, schedule: Q01DX005 (ip), vehicle: saline with Tween-80): 99 % of control

Cc1ccc(NC2=NCCS2)cc1Cl
T/C [1]: 110 % of control | T/C [2]: 115 % of control | T/C [3]: 89 % of control

NC(=O)c1ccccc1NC(=O)c1ccccc1C(=O)O
T/C [6]: 100 % of control and 101 % of control | T/C [7]: 99 % of control and 103 % of control | T/C [11]: 101 % of control and 103 % of control | T/C (dose: 400.0 mg/kg/injection, schedule: Q01DX009 (ip), vehicle: saline with Tween-80): 100 % of control and 101 % of control

CCCCCC/C=N/N1C(=O)C2C3C=CC(O3)C2C1=O (centres undefined)
T/C [12]: 103 % of control | T/C [13]: 108 % of control | T/C [14]: 95 % of control

S=C1OCCO1
T/C [1]: 106 % of control | T/C [2]: 102 % of control | T/C [3]: 100 % of control | T/C (dose: 400.0 mg/kg/injection, schedule: Q01DX009 (ip), vehicle: Klucel (hydroxypropylcellulose) (HPC)): 105 % of control

Oc1ccc2c3c1OC1CCCC4[C@H](C2)N(Cc2ccoc2)CC[C@@]314 (some centres undefined)
T/C [8]: 91 % of control | T/C [9]: 98 % of control | T/C [10]: 91 % of control

O=C1C2=C(Nc3cc(Cl)ccc3N2)OC1c1ccc2c(c1)OCO2 (centres undefined)
T/C (dose: 60.0 mg/kg/injection, schedule: Q01DX005 (ip), vehicle: Klucel (hydroxypropylcellulose) (HPC)): 101 % of control | T/C (dose: 120.0 mg/kg/injection, schedule: Q01DX005 (ip), vehicle: Klucel (hydroxypropylcellulose) (HPC)): 98 % of control | T/C (dose: 240.0 mg/kg/injection, schedule: Q01DX005 (ip), vehicle: Klucel (hydroxypropylcellulose) (HPC)): 101 % of control

CC(=N)C(C#N)C(=S)SCCC#N (centres undefined)
T/C [1]: 97 % of control | T/C [2]: 89 % of control | T/C [3]: 106 % of control
